# Assay results taken from PubChem BioAssay (NCI).
#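 Assay format: 96-well plates, 48-hour exposure. The concentration for full growth arrest is given as TGI.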
# Columns and labels:
# Assay in all cases: growth of human tumour cells (NCI), 48 h
# DU-145 prostate = system: DU-145 prostate
# SK-MEL-5 melanoma = system: SK-MEL-5 melanoma
# MDA-MB-435 = system: MDA-MB-435
# NCI-H226 lung = system: NCI-H226 lung
# SF-539 CNS = system: SF-539 CNS
# NCI-H23 lung = system: NCI-H23 lung
# OVCAR-5 ovarian = system: OVCAR-5 ovarian
# SNB-19 CNS = system: SNB-19 CNS
# HT29 colon = system: HT29 colon
# SF-268 CNS = system: SF-268 CNS
# SW-620 colon = system: SW-620 colon
# SF-295 CNS = system: SF-295 CNS
# A498 renal = system: A498 renal
# MDA-MB-231 breast = system: MDA-MB-231 breast
# EKVX NSCLC = system: EKVX NSCLC
# OVCAR-4 ovarian = system: OVCAR-4 ovarian
# IGROV1 ovarian = system: IGROV1 ovarian
# OVCAR-3 ovarian = system: OVCAR-3 ovarian
# NCI/ADR-RES ovarian = system: NCI/ADR-RES ovarian
# HOP-92 NSCLC = system: HOP-92 NSCLC
# A549 NSCLC = system: A549 NSCLC
# M14 melanoma = system: M14 melanoma
# CAKI-1 renal = system: CAKI-1 renal
# RXF 393 renal = system: RXF 393 renal
# KM12 colon = system: KM12 colon
# MDA-N = system: MDA-N
# SNB-75 CNS = system: SNB-75 CNS
# SK-MEL-28 melanoma = system: SK-MEL-28 melanoma
# COLO 205 colon = system: COLO 205 colon
# SN12C renal = system: SN12C renal
# ACHN renal = system: ACHN renal
# UO-31 renal = system: UO-31 renal
# U251 CNS = system: U251 CNS
# OVCAR-8 ovarian = system: OVCAR-8 ovarian
# HCT-116 colon = system: HCT-116 colon
# PC-3 prostate = system: PC-3 prostate
# TK-10 renal = system: TK-10 renal
# HCT-15 colon = system: HCT-15 colon
# UACC-257 melanoma = system: UACC-257 melanoma
# T-47D breast = system: T-47D breast
# SR leukemia = system: SR leukemia
# SK-MEL-2 melanoma = system: SK-MEL-2 melanoma
# HS 578T breast = system: HS 578T breast
# HCC-2998 colon = system: HCC-2998 colon
# HOP-62 NSCLC = system: HOP-62 NSCLC
# HL-60(TB) leukemia = system: HL-60(TB) leukemia
# SK-OV-3 ovarian = system: SK-OV-3 ovarian
# NCI-H522 lung = system: NCI-H522 lung
# CCRF-CEM leukemia = system: CCRF-CEM leukemia
# LOX IMVI melanoma = system: LOX IMVI melanoma
# MALME-3M melanoma = system: MALME-3M melanoma
# 786-0 renal = system: 786-0 renal
# MCF7 breast = system: MCF7 breast
# RPMI-8226 leukemia = system: RPMI-8226 leukemia
# K-562 leukemia = system: K-562 leukemia
smiles,measurement,setting,value
COc1cc2c(cc1OC)C1C[C@]3(CCN1CC2)C(=O)N(c1ccccc1)C(=O)N3C(C)=O (some centres undefined),TGI,DU-145 prostate,> 200 µM
same,TGI,SK-MEL-5 melanoma,> 200 µM
same,TGI,MDA-MB-435,> 200 µM
same,TGI,NCI-H226 lung,> 200 µM
same,TGI,SF-539 CNS,> 200 µM
same,TGI,NCI-H23 lung,> 200 µM
same,TGI,OVCAR-5 ovarian,> 200 µM
same,TGI,SNB-19 CNS,> 200 µM
same,TGI,HT29 colon,> 200 µM
same,TGI,SF-268 CNS,> 200 µM
same,TGI,SW-620 colon,> 200 µM
same,TGI,SF-295 CNS,> 200 µM
same,TGI,A498 renal,> 200 µM
same,TGI,MDA-MB-231 breast,> 200 µM
same,TGI,EKVX NSCLC,> 200 µM
same,TGI,OVCAR-4 ovarian,> 200 µM
same,TGI,IGROV1 ovarian,> 200 µM
same,TGI,OVCAR-3 ovarian,> 200 µM
same,TGI,NCI/ADR-RES ovarian,> 200 µM
same,TGI,HOP-92 NSCLC,> 200 µM
same,TGI,A549 NSCLC,> 200 µM
same,TGI,M14 melanoma,> 200 µM
same,TGI,CAKI-1 renal,> 200 µM
same,TGI,RXF 393 renal,> 200 µM
same,TGI,KM12 colon,> 200 µM
same,TGI,MDA-N,> 200 µM
same,TGI,SNB-75 CNS,> 200 µM
same,TGI,SK-MEL-28 melanoma,> 200 µM
same,TGI,COLO 205 colon,> 200 µM
same,TGI,SN12C renal,> 200 µM
same,TGI,ACHN renal,> 200 µM
same,TGI,UO-31 renal,> 200 µM
same,TGI,U251 CNS,> 200 µM
same,TGI,OVCAR-8 ovarian,> 200 µM
same,TGI,HCT-116 colon,> 200 µM
same,TGI,PC-3 prostate,> 200 µM
same,TGI,TK-10 renal,> 200 µM
same,TGI,HCT-15 colon,> 200 µM
CC1=C(CO)C2=C(C)C3(CC3)[C@@](C)(O)C(=O)C2=C1,TGI,UACC-257 melanoma,0.487 µM
same,TGI,T-47D breast,2.48 µM
same,TGI,SR leukemia,> 100 µM
same,TGI,SK-MEL-2 melanoma,0.367 µM
same,TGI,SK-MEL-5 melanoma,0.374 µM
same,TGI,MDA-MB-435,5.81 µM
same,TGI,NCI-H226 lung,0.528 µM
same,TGI,SF-539 CNS,0.371 µM
same,TGI,NCI-H23 lung,0.284 µM
same,TGI,HS 578T breast,1.51 µM
same,TGI,OVCAR-5 ovarian,0.553 µM
same,TGI,SNB-19 CNS,10.6 µM
same,TGI,HCC-2998 colon,0.329 µM
same,TGI,HT29 colon,1.12 µM
same,TGI,HOP-62 NSCLC,0.4 µM
same,TGI,SF-268 CNS,2.57 µM
same,TGI,SW-620 colon,> 30.4 µM
same,TGI,A498 renal,0.507 µM
same,TGI,MDA-MB-231 breast,1.34 µM
same,TGI,HL-60(TB) leukemia,1.79 µM
same,TGI,SK-OV-3 ovarian,0.926 µM
same,TGI,EKVX NSCLC,0.535 µM
same,TGI,OVCAR-4 ovarian,0.703 µM
same,TGI,NCI-H522 lung,0.682 µM
same,TGI,IGROV1 ovarian,0.529 µM
same,TGI,OVCAR-3 ovarian,0.735 µM
same,TGI,NCI/ADR-RES ovarian,0.698 µM
same,TGI,HOP-92 NSCLC,0.639 µM
same,TGI,CCRF-CEM leukemia,> 28.6 µM
same,TGI,A549 NSCLC,1.64 µM
same,TGI,M14 melanoma,0.698 µM
same,TGI,CAKI-1 renal,0.76 µM
same,TGI,RXF 393 renal,0.159 µM
same,TGI,KM12 colon,2.81 µM
same,TGI,LOX IMVI melanoma,3.14 µM
same,TGI,MDA-N,3.25 µM
same,TGI,MALME-3M melanoma,0.494 µM
same,TGI,SNB-75 CNS,0.473 µM
same,TGI,SK-MEL-28 melanoma,1.44 µM
same,TGI,COLO 205 colon,0.298 µM
same,TGI,SN12C renal,5.21 µM
same,TGI,ACHN renal,1.52 µM
same,TGI,786-0 renal,0.474 µM
same,TGI,OVCAR-8 ovarian,0.631 µM
same,TGI,MCF7 breast,1.87 µM
same,TGI,HCT-116 colon,0.504 µM
same,TGI,RPMI-8226 leukemia,> 81.6 µM
same,TGI,PC-3 prostate,1.31 µM
same,TGI,TK-10 renal,1.13 µM
same,TGI,K-562 leukemia,> 100 µM
same,TGI,HCT-15 colon,5.17 µM
